Experimental data published in patent US12391664B2, “GluN2C/D subunit selective antagonists of the N-methyl-D-aspartate receptor” (Emory University, priority 2018, dated 2025).
pIC50: −log10 of the molar value. Like-named read-outs stand apart in the source and are kept apart here.

Assays:
Assay type in all cases: cell-based
[1] = biological target: T1, recombinant rat GluN1/GluN2A (Rattus norvegicus, UniProt Q00959); test: Two-electrode voltage-clamp recordings in Xenopus laevis oocytes, GluN2A; conditions: for I3 μM/Icontrol (mean ± SEM, %) GluN2A: 3 μM compound with 100 μM glutamate and 30 μM glycine, control set as 1; for GluN2A IC50: oocytes, 100 μM glutamate and 30 μM glycine
T1 construct: expressed in transfected cells; host or cells: Xenopus laevis oocytes injected with cRNA (GluN1:GluN2 ratio 1:2)
T1 sequence (Q00959 23-1464, other chains not shown): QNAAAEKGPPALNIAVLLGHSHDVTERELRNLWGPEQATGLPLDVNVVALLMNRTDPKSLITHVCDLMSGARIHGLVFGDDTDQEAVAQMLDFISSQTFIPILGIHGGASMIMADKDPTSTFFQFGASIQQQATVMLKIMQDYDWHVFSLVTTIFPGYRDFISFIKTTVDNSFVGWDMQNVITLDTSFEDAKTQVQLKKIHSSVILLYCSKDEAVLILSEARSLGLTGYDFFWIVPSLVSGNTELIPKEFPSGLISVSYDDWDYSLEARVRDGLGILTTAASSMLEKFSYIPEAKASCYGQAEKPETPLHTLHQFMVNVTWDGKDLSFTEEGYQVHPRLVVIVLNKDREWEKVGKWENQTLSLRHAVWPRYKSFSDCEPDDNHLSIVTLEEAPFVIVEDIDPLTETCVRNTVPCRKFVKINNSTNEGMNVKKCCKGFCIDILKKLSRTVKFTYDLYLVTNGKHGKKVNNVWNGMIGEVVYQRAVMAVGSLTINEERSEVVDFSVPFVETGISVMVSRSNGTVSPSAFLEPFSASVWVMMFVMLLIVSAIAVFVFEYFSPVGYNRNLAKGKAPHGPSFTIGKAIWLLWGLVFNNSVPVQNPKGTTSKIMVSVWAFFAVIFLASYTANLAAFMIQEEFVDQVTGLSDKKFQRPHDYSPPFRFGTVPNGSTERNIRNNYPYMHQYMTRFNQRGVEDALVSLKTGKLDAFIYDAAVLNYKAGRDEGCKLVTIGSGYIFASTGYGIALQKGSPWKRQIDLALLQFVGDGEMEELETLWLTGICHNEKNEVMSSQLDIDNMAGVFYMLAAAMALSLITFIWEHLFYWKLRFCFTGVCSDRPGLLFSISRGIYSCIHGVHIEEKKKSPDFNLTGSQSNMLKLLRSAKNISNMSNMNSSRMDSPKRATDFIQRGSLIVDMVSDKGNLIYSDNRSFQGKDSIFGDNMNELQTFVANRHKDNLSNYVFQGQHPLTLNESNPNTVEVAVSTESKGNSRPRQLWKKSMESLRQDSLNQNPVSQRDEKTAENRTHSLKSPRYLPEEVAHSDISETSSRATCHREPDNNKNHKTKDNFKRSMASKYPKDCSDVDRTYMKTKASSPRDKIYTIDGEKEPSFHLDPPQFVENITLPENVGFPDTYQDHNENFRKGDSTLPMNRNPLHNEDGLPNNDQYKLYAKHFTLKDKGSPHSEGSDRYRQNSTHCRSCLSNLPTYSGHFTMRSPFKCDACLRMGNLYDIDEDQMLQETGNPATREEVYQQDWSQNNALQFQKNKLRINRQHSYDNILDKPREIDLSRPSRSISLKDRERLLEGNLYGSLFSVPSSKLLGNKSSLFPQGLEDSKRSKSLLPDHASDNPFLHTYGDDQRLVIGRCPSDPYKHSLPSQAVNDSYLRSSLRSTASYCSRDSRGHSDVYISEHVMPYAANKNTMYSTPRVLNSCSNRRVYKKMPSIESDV
Protocol: (§1) All target compounds were evaluated for activity by the Traynelis laboratory at Emory University using two-electrode voltage-clamp recordings performed in Xenopus laevis oocytes expressing recombinant GluN2A-D subunits (Table 1). […] Two ester compounds 997-65 and 997-66 also performed no inhibition at GluN2A to GluN2D receptors. […] Consequently, for the compounds that Acker et al. already published, it was necessary to increase the concentration to 100 μM when collecting data for a concentration effect curve. […] Therefore, under this condition, we can only conclude that compound 997-67 remained potent at GluN2C/D-containing receptors, but its selectivity over GluN2A- and GluN2B-containing receptors could not be compared to 997-57. […] Finally, replacing the carboxylic acid to the bio-isostere amide yielded compounds 997-96 and 997-115, which dropped the potency 2- to 4-fold in comparison to their corresponding acids 997-74 and 997-114.
(§2) Two-electrode voltage-clamp recordings were performed in Xenopus laevis oocytes that were injected with mRNA to express recombinant rat GluN1/GluN2A, GluN1/GluN2B, GluN1/GluN2C, and GluN1/GluN2D. The recordings using unfertilized oocytes from Xenopus laevis were permitted by Emory University Institutional Animal Care and Use Committee (IACUC). An automatic injector (Nanoject II, Drummond Scientific) was used for cRNA injection using the pipettes filled with mineral oil. The cRNA that transcribed in vitro via the mMessage Machine kit (Ambion) was diluted with nuclease-free water, and then injected at GluN1/GluN2 with a ratio of 1:2. The oocytes were stored in Barth's solution that contained 88 mM NaCl, 5.0 mM Tris-HCl, 2.4 mM NaHCO3, 1.0 mM KCl, 0.84 mM MgSO4, 0.41 mM CaCl2, 0.33 mM Ca(NO3)2, 0.1 mg/ml gentamycin sulfate, 1.0 U/ml penicillin, and 1 μg/ml streptomycin at a pH of 7.4 and temperatures of 15-17° C. for two to five days before the two-electrode voltage-clamp recordings. When recording, the oocytes were placed in a perfusion chamber and continually washed with the recording solution comprised of 90 mM NaCl, 1.0 mM KCl, 0.50 mM BaCl2, 0.005 mM EDTA, and 10 mM HEPES at a pH of 7.4 and a temperature of 23° C. Glass electrodes with a tip resistance of 0.5 to 2.5 MΩ were obtained from thin-walled glass capillary tubes. Voltage electrodes and current electrodes were filled with 0.3 M and 3.0 M KCl, respectively. The recordings were executed with the oocytes membrane potential holding at −40 m V by an OC-725 amplifier (Warner Instrument Co). All compounds were dissolved in dimethyl sulfoxide (DMSO) as 20 mM stock solutions and future diluted to reach the desired concentration (0.05-0.5% (vol/vol) DMSO) in recording solution comprised of 30 μM glycine and 100 μM glutamate. Each compound was recorded 3-7 times in the least 4 oocytes from at least 2 different Xenopus laevis.
(§3) To evaluate the inhibition of compounds, the concentration-response curve was fitted with the average two-electrode voltage-clamp recording results with the equation
(§4) [formula] • where IC50 is the concentration of compounds that inhibit half maximal of the current response and N is the Hill slope.

[2] = biological target: T2, recombinant rat GluN1/GluN2B (Rattus norvegicus, UniProt Q00960); test: Two-electrode voltage-clamp recordings in Xenopus laevis oocytes, GluN2B; conditions: for I3 μM/Icontrol (mean ± SEM, %) GluN2B: 3 μM compound with 100 μM glutamate and 30 μM glycine, control set as 1; for GluN2B IC50: oocytes, 100 μM glutamate and 30 μM glycine
T2 construct: expressed in transfected cells; host or cells: Xenopus laevis oocytes injected with cRNA (GluN1:GluN2 ratio 1:2)
Protocol: as §1, §2, §3, §4

[3] = biological target: T3, recombinant rat GluN1/GluN2C (Rattus norvegicus, UniProt P35439+Q00961); test: Two-electrode voltage-clamp recordings in Xenopus laevis oocytes, GluN2C
T3 construct: expressed in transfected cells; host or cells: Xenopus laevis oocytes injected with cRNA (GluN1:GluN2 ratio 1:2)
T3 sequence (Q00961 20-1237, other chains not shown): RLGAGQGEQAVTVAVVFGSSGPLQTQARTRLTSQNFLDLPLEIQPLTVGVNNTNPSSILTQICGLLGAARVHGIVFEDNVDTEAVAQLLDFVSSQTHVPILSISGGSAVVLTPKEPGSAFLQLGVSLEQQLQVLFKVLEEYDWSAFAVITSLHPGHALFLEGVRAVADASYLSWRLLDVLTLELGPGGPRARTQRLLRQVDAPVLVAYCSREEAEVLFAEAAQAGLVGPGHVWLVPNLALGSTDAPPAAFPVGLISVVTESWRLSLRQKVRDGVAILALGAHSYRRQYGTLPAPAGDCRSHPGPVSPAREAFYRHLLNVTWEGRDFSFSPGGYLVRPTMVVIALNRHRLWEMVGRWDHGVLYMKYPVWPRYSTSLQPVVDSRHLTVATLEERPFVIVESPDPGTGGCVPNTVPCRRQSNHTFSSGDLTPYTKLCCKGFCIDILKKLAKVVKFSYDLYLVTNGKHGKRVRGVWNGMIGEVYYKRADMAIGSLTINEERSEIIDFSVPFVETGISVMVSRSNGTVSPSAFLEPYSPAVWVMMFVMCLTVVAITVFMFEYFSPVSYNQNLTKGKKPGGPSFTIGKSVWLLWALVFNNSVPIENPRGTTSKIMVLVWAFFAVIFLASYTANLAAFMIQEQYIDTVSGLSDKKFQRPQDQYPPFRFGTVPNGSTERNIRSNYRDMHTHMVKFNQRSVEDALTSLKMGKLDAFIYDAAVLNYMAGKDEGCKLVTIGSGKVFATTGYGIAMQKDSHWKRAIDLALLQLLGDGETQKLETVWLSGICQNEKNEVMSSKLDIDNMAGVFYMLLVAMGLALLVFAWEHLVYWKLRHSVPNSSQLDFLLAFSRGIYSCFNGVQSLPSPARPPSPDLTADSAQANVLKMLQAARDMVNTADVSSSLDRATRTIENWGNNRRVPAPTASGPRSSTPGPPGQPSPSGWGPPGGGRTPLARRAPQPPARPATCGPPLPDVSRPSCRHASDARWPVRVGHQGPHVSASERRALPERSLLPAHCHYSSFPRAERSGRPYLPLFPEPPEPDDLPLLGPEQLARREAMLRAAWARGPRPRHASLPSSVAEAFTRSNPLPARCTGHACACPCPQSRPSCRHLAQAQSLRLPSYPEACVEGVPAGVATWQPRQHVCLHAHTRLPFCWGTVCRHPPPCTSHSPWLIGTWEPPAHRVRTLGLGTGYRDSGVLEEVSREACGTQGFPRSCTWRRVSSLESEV
Protocol: as §1, §2, §3, §4

[4] = biological target: T4, recombinant rat GluN1/GluN2C (Rattus norvegicus, UniProt Q00961); test: as above; conditions: for I3 μM/Icontrol (mean ± SEM, %) GluN2C: 3 μM compound with 100 μM glutamate and 30 μM glycine, control set as 1; for GluN2C IC50: oocytes, 100 μM glutamate and 30 μM glycine
T4 construct: expressed in transfected cells; host or cells: Xenopus laevis oocytes injected with cRNA (GluN1:GluN2 ratio 1:2)
T4 sequence (Q00961 20-1237, other chains not shown): as above
Protocol: as §1, §2, §3, §4

[5] = biological target: T5, recombinant rat GluN1/GluN2D (Rattus norvegicus, UniProt P35439+Q62645); test: Two-electrode voltage-clamp recordings in Xenopus laevis oocytes, GluN2D
T5 construct: expressed in transfected cells; host or cells: Xenopus laevis oocytes injected with cRNA (GluN1:GluN2 ratio 1:2)
T5 sequence (Q62645 28-1323, other chains not shown): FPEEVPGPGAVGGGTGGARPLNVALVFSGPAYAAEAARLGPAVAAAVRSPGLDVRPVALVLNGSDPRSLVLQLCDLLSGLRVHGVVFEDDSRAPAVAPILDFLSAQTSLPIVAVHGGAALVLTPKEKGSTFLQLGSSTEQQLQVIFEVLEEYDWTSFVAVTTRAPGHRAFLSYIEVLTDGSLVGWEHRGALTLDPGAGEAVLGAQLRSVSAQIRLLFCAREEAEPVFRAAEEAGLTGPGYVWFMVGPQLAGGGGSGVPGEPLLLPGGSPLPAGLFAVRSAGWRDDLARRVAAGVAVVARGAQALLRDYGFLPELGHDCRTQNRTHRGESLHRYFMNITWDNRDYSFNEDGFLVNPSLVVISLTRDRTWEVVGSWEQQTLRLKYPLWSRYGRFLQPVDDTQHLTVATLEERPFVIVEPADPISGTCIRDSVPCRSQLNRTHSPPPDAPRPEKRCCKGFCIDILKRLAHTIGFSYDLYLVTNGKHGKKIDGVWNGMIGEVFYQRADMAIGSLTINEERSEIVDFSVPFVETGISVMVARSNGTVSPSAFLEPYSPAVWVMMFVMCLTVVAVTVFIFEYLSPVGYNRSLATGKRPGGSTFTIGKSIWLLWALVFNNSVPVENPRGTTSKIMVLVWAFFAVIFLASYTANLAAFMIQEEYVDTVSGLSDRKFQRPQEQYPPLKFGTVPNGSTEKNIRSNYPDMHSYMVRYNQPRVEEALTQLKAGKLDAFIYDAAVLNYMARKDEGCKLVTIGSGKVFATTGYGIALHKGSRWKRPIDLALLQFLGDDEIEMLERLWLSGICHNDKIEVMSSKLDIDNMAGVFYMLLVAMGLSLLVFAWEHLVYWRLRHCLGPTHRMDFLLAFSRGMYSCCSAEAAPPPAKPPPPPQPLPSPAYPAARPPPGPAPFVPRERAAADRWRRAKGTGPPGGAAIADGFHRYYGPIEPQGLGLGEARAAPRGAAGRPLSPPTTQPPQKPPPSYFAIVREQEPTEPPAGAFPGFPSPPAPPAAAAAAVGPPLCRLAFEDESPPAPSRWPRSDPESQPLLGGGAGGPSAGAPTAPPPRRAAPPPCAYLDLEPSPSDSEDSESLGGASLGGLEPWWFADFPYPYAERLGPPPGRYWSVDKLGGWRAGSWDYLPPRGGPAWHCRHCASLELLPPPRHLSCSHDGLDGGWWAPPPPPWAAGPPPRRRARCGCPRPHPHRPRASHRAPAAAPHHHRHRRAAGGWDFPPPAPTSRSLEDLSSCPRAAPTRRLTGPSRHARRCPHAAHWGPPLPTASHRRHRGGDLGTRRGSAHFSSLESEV
Protocol: as §1, §2, §3, §4

[6] = biological target: T6, recombinant rat GluN1/GluN2D (Rattus norvegicus, UniProt Q62645); test: as above; conditions: for I3 μM/Icontrol (mean ± SEM, %) GluN2D: 3 μM compound with 100 μM glutamate and 30 μM glycine, control set as 1; for GluN2D IC50: oocytes, 100 μM glutamate and 30 μM glycine
T6 construct: expressed in transfected cells; host or cells: Xenopus laevis oocytes injected with cRNA (GluN1:GluN2 ratio 1:2)
T6 sequence (Q62645 28-1323, other chains not shown): as above
Protocol: as §1, §2, §3, §4

[7] = biological target: T7, recombinant rat GluN1/GluN2B (Rattus norvegicus, UniProt P35439+Q00960); test: Two-electrode voltage-clamp recordings in Xenopus laevis oocytes, GluN2B; conditions: oocytes, 100 μM glutamate and 30 μM glycine
T7 construct: expressed in transfected cells; host or cells: Xenopus laevis oocytes injected with cRNA (GluN1:GluN2 ratio 1:2)
Protocol: as §1, §2, §3, §4

[8] = mean IC50 with bottom and top 95% confidence interval, read-out: Avg. GluN2C IC50 (95% CI)
[9] = oocytes, 100 μM glutamate and 30 μM glycine, read-out: GluN2C IC50
[10] = mean IC50 with bottom and top 95% confidence interval, read-out: Avg. GluN2D IC50 (95% CI)
[11] = oocytes, 100 μM glutamate and 30 μM glycine, read-out: GluN2D IC50

pIC50 [3, 9] | pIC50 [5, 10] | pIC50 [5, 11] | GluN2C IC50 [4] | GluN2D IC50 [6] | SMILES | GluN2A IC50 [1] | GluN2B IC50 [2] | other results
5.47 | 5.65 | 5.41 | – | – | O=C(O)CC(F)(F)C(=O)N1N=C(c2c(-c3ccc(Cl)cc3)c3ccccc3[nH]c2=O)C[C@@H]1c1ccc(Cl)cc1 [(+)-997-74] | – | – | I3 μM/Icontrol (mean ± SEM, %) GluN2A [1]: 95 ± 0.47%; I3 μM/Icontrol (mean ± SEM, %) GluN2B [2]: 87 ± 1.4%; pIC50 [3, 8]: 5.51; I3 μM/Icontrol (mean ± SEM, %) GluN2C [4]: 56 ± 3.8%; I3 μM/Icontrol (mean ± SEM, %) GluN2D [6]: 55 ± 2.7%
5.44 | – | 5.45 | – | – | O=C(O)CC(F)(F)C(=O)N1N=C(c2ccccc2-c2ccc(C(F)(F)F)cc2)CC1c1ccc(Cl)cc1 (stereo not shown) [997-124, 4-(5-(4-chlorophenyl)-3-(4′-(trifluoromethyl)-[1,1′-biphenyl]-2-yl)-4,5-dihydro-1H-pyrazol-1-yl)-3,3-difluoro-4-oxobutanoic acid] | NE (NE indicates less than 50% inhibition at 30 μM.) | – | pIC50 [7]: 4.83
5.07 | 5.15 | 5.44 | – | – | O=C(CC(F)(F)CO)N1N=C(c2c(-c3ccc(Cl)cc3)c3ccccc3[nH]c2=O)CC1c1ccc(Cl)cc1 (single isomer, unassigned; (+)) [(+)-997-67] | – | – | I3 μM/Icontrol (mean ± SEM, %) GluN2A ([1]; listed as (+)-67): 98 ± 2.1%; I3 μM/Icontrol (mean ± SEM, %) GluN2B ([2]; listed as (+)-67): 87 ± 2.8%; I3 μM/Icontrol (mean ± SEM, %) GluN2C ([4]; listed as (+)-67): 74 ± 2.1%; I3 μM/Icontrol (mean ± SEM, %) GluN2D ([6]; listed as (+)-67): 57 ± 3.5%
5.10 | – | 5.10 | weak activity | weak activity | O=C(O)CCC(=O)N1N=C(c2c(-c3ccc(Cl)cc3)c3ccccc3[nH]c2=O)CC1c1ccc(Cl)nc1 (stereo not shown) [997-92, 4-(3-(4-(4-chlorophenyl)-2-oxo-1,2-dihydroquinolin-3-yl)-5-(6-chloropyridin-3-yl)-4,5-dihydro-1H-pyrazol-1-yl)-4-oxobutanoic acid] | NE (NE indicates less than 50% inhibition at 30 μM.) | NE (NE indicates less than 50% inhibition at 30 μM.) | –
5.85 | 6.01 | 6.21 | – | – | O=C(CC(F)(F)CO)N1N=C(c2c(-c3ccc(Cl)cc3)c3ccccc3[nH]c2=O)CC1c1ccc(Cl)cc1 (single isomer, unassigned; (-)) [(−)-997-67] | – | – | I3 μM/Icontrol (mean ± SEM, %) GluN2A ([1]; listed as (−)-67): 100 ± 0.89%; I3 μM/Icontrol (mean ± SEM, %) GluN2B ([2]; listed as (−)-67): 95 ± 2.2%; pIC50 [3, 8]: 5.57; I3 μM/Icontrol (mean ± SEM, %) GluN2C ([4]; listed as (−)-67): 42 ± 2.8%; I3 μM/Icontrol (mean ± SEM, %) GluN2D ([6]; listed as (−)-67): 26 ± 3.2%; fold more potent than the (+)-enantiomer at GluN2D ([6]; (−)- versus (+)-enantiomer): 6 fold
4.70 | – | 4.72 | weak potency | weak potency | O=c1[nH]c2ccccc2c(-c2ccc(Cl)cc2)c1C1=NNC(c2ccncc2)C1 (stereo not shown) [997-78, 4-(4-chlorophenyl)-3-[5-(pyridin-4-yl)-4,5-dihydro-1H-pyrazol-3-yl]quinolin-2(1H)-one] | NE (NE indicates less than 50% inhibition at 30 μM.) | weak potency | pIC50 [7]: 4.27; 2B IC50 / 2D IC50 ([6]; ratio of IC50 values): 3

SMILES | pIC50 [3, 9] | pIC50 [5, 10] | pIC50 [5, 11] | GluN2C IC50 [4] | GluN2D IC50 [6] | GluN2A IC50 [1] | GluN2B IC50 [2] | other results
Cc1c(C2=NNC(c3ccc(Cl)cc3)C2)c(=O)[nH]c2ccccc12 (stereo not shown) [997-77, 3-(5-(4-chlorophenyl)-4,5-dihydro-1H-pyrazol-3-yl)-4-methylquinolin-2(1H)-one] | – | – | – | NE (NE indicates less than 50% inhibition at 30 μM.) | NE (NE indicates less than 50% inhibition at 30 μM.) | NE (NE indicates less than 50% inhibition at 30 μM.) | NE (NE indicates less than 50% inhibition at 30 μM.) | –
